One substance from patent US20070015723A1, “Antiviral oligonucleotides having a conserved G4 core sequence” (priority 1992, published 2007) can be followed below.

Series [1] concerns phospholipase A2 from Agkistrodon piscivorus piscivorus.
The subject of series [2] is Naja naja naja phospholipase A2.

As usually defined, the pIC50 is −log10 of the IC50, conventionally taken in molar units.

pIC50: −log10 of the molar value.

With “ISIS 3196: GGG T GGG T ATA G AAG G GCT CC, P = S, SEQ ID NO 47 (GGGTGGGTATAGAAGGGCTCC; all phosphorothioate, sugars by position and methylation of C not given here)”, the results for the pIC50 in series [1] and in series [2] were about 5.52 and under 5.00, respectively.
